Measurements: paper doi:10.1101/2024.03.13.583470v1, “SARS-CoV-2 methyltransferase nsp10-16 in complex with natural and drug-like purine analogs for guiding structure-based drug discovery” (biorxiv, 2024)

How the values were obtained:
nsp10-16 [1] = molecular target: T1, nsp10-16 (Severe acute respiratory syndrome coronavirus 2, UniProt P0DTD1); test: X-ray crystallography, soaking; format: binding; settings: SAM site, fully replaces SAM; 10 mM soak, pH 6.5
T1 construct: gene rep

nsp10-16 [2] = molecular target: T1, nsp10-16; test: ITC or other biophysical method (nanoDSF, MST), not given; format: binding

Row | Structure (SMILES) | X-ray crystallography, soaking (nsp10-16 [1]) | KD (nsp10-16 [2])
1 | Nc1ncnc2c1ncn2[C@@H]1O[C@H](CO)[C@@H](O)[C@H]1O [adenosine] | electron density is observed in the adenosine cavity while SAM is fully replaced | –
2 | C[S+](CC[C@H](N)C(=O)O)C[C@H]1O[C@@H](n2cnc3c(N)ncnc32)[C@H](O)[C@@H]1O (some centres unmarked) [S-adenosyl methionine] | – | measurable binding of the tested ligands within the investigated ligand concentrations applied, except for
